Reference: the supplement of paper PMC10307832

Key:
Assay in all cases: relative viability (nuclei count vs DMSO), 5 days (fraction); higher = more cells survive
Kobe2602 + Olaparib = compound: C1=CC(=CC=C1NC(=S)NNC2=C(C=C(C=C2[N+](=O)[O-])C(F)(F)F)[N+](=O)[O-])F [Kobe2602] + O=C(c1cc(Cc2n[nH]c(=O)c3ccccc23)ccc1F)N1CCN(C(=O)C2CC2)CC1 [Olaparib] (partner 8 µM)
Summary of the method: (§1)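 Relative viability divides the nuclei count in treated wells by that in vehicle wells. Lung cancer cell lines were seeded in 1536-well plates, dosed by pin tool the next day, and fixed and stained after 5 days in one step with final 0.05% Triton X-100, 1% formaldehyde and 1 ug/ml Hoechst. Dosing was a single drug or a fixed anchor-drug dose plus five library-drug doses (not always all listed) in √10 steps, and values are medians of duplicate plates imaged at 4×.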

[1] = compound: COc1cc2nccc(Oc3ccc(NC(=O)C4(C(=O)Nc5ccc(F)cc5)CC4)cc3)c2cc1OC [Cabozantinib] + N=C(N)NC(=N)NCCc1ccccc1 [Phenformin] (partner 250 µM)
Summary of the method: as §1

[2] = compound: COc1cc2nccc(Oc3ccc(NC(=O)C4(C(=O)Nc5ccc(F)cc5)CC4)cc3)c2cc1OC [Cabozantinib] + Nc1nc2[nH]cc(CCc3ccc(C(=O)N[C@@H](CCC(=O)O)C(=O)O)cc3)c2c(=O)[nH]1 [Pemetrexed] (partner 0.2 µM)
Summary of the method: as §1

Cabozantinib + Olaparib = compound: COc1cc2nccc(Oc3ccc(NC(=O)C4(C(=O)Nc5ccc(F)cc5)CC4)cc3)c2cc1OC [Cabozantinib] + O=C(c1cc(Cc2n[nH]c(=O)c3ccccc23)ccc1F)N1CCN(C(=O)C2CC2)CC1 [Olaparib] (partner 8 µM)
Summary of the method: as §1

Cell Line	relative viability (Kobe2602 + Olaparib; first compound 0.2 µM)	relative viability (Kobe2602 + Olaparib; first compound 0.6325 µM)	relative viability (Kobe2602 + Olaparib; first compound 2 µM)	relative viability (Kobe2602 + Olaparib; first compound 6.325 µM)	relative viability (Kobe2602 + Olaparib; first compound 20 µM)	relative viability ([1]; first compound 0.06325 µM)	relative viability ([1]; first compound 0.2 µM)	relative viability ([1]; first compound 0.6325 µM)	relative viability ([1]; first compound 2 µM)	relative viability ([2]; first compound 0.06325 µM)	relative viability ([2]; first compound 0.2 µM)	relative viability ([2]; first compound 0.6325 µM)	relative viability ([2]; first compound 2 µM)	relative viability (Cabozantinib + Olaparib; first compound 0.06325 µM)	relative viability (Cabozantinib + Olaparib; first compound 0.2 µM)	relative viability (Cabozantinib + Olaparib; first compound 0.6325 µM)	relative viability (Cabozantinib + Olaparib; first compound 2 µM)	relative viability ([1]; first compound 0.02 µM)	relative viability ([2]; first compound 0.02 µM)	relative viability (Cabozantinib + Olaparib; first compound 0.02 µM)
NCI-H1792	0.372	0.556	0.398	0.253	0.566	0.374	0.37	0.254	0.251	1.27	0.868	0.986	0.608	0.56	0.419	0.317	0.373	–	–	–
NCI-H2085	0.768	0.835	0.848	0.809	0.799	0.752	0.595	0.695	0.616	0.974	0.737	0.866	0.744	0.805	0.786	0.781	0.776	0.749	0.9	0.842
LC-2-ad	0.693	0.683	0.708	0.736	0.682	0.68	0.574	0.604	0.546	0.285	0.271	0.278	0.253	0.735	0.847	0.829	0.691	–	0.279	0.754
201T	0.815	0.859	0.869	0.866	0.826	0.451	0.472	0.438	0.439	0.351	0.305	0.336	0.313	0.893	0.832	0.842	0.832	0.383	0.311	0.909
NCI-H2023	0.496	0.566	0.511	0.446	0.166	0.463	0.337	0.26	0.236	0.272	0.175	0.23	0.146	0.545	0.383	0.429	0.433	0.444	0.199	0.483
NCI-H1793	0.91	0.852	0.744	0.883	0.977	0.441	0.303	0.326	0.296	0.917	–	0.73	0.588	0.899	–	0.756	0.599	0.347	0.865	1.01
NCI-H2347	0.603	0.548	0.559	0.53	0.607	0.604	0.596	–	0.318	0.481	0.429	0.442	0.371	0.549	0.525	0.493	0.446	0.449	0.422	0.641
LXF-289	1.05	1.1	1.05	0.955	1.04	0.544	0.5	0.508	0.493	0.953	0.868	0.883	0.897	1.22	1.06	0.979	1.07	0.524	0.957	1.13
